{"source": "patent US20240216395A1", "about": "“19-NOR C3,3-DISUBSTITUTED C21 -N-PYRAZOLYL STEROID FOR USE IN TREATING MAJOR DEPRESSIVE DISORDER AND […]” (priority 2021, published 2024)", "system": "adult female subjects with severe postpartum depression (PPD)", "assay": "Phase 3 placebo-controlled study of Compound (1) 30 mg QD for 14 days in PPD (NCT02978326, ROBIN): efficacy and post hoc analyses", "assay_type": "in vivo, human", "protocol": "Example 4. A Multicenter, Randomized, Double-Blind, Parallel-Group, Placebo-Controlled Study Evaluating the Efficacy, Safety, and Pharmacokinetics of Compound (1) in the Treatment of Adult Female Subjects with Severe Postpartum Depression\nThis was a multicenter, randomized, double-blind, parallel-group, placebo-controlled study of the efficacy, safety, and pharmacokinetics of Compound (1) in adult subjects diagnosed with severe PPD.\nRandomized subjects received 30 mg QD of study drug (Compound (1) Capsules or placebo). Those subjects who could not tolerate 30 mg QD will received 20 mg QD for the remainder of the Treatment Period. Subjects who experienced intolerable adverse events (AEs) at the 20 mg QD dose level could be discontinued from study treatment at the discretion of the Investigator. Subjects were instructed to take the study drug with food. Study drug was self-administered by subjects in the evening (8:00 pm±30 min) on an outpatient basis for the entire 14-day Treatment Period. Study drug administration was monitored via a follow-up call from the site each evening (within approximately 1 hour following the scheduled evening dose) on Days 1 to 14.\nThe primary efficacy endpoint was the change from baseline in HAM-D total score at the end of the Treatment Period (Day 15). The HAM-D total score was calculated as the sum of the 17 individual item scores.\nSecondary endpoints included: • Change from baseline in the HAM-D total score at all time points other than Day 15; • HAM-D Response defined as a 50% or greater reduction from baseline in HAM-D total score; • HAM-D Remission defined as a HAM-D total score of ≤7; • Change from baseline in MADRS total score at Day 15 and other time points; • CGI-I Response defined as “very much improved” or “much improved”; • Change from baseline in HAM-A total score at Day 15 and other time points; • Changes from baseline in HAM-D subscales and individual item scores at Day 15 and other time points\nThe change from baseline in HAM-D total score was analyzed using a mixed effects model for repeated measures (MMRM); the model included center, treatment, baseline HAM-D total score, assessment time point, and time point-by-treatment as explanatory variables. All post-baseline time points were included in the model. The primary comparison was between Compound (1) and placebo at the 15-day time point. Model-based point estimates (e.g., least squares [LS] means), 95% confidence intervals, and p-values were reported. An unstructured covariance structure was used to model the within-subject errors. Continuous secondary and other variables were analyzed using similar methods.\nBinary efficacy endpoints, including responder and remission endpoints, were summarized and analyzed using the generalized estimating equation method.\nAs indicated in Example 4, women (N=151), ages 18-45, ≤6 months postpartum, diagnosed with PPD (defined as a major depressive episode with onset in the 3rd trimester or ≤4 weeks postpartum), and a baseline HAMD-17 total score ≥26, were randomized to study drug in an outpatient setting.\nPatients were randomized 1:1 to receive oral Compound (1) 30 mg or placebo once daily for 14 days, with 4 weeks follow-up. The change from baseline (CFB) vs placebo in HAMD-17 at Day 15 was the primary endpoint. Treatment emergent adverse events (TEAEs) were assessed throughout the study.\nPost hoc analyses explored concurrent anxiety and depression improvement using a combination of scales at Days 15 and 45: (1) HAMD-17≤7+HAM-A≤7, or (2) MADRS ≤10+HAM-A≤7. Depression improvement was defined as either a HAMD-17 total score ≤7, or a MADRS total score […]. Improvement in anxiety symptoms was defined as a HAM-A total score ≤7.\nCFB in HAMD-17 total score was evaluated using the least-squares mean from a mixed effect model for repeated measures. […]", "data": [{"smiles": "C[C@@]1(O)CC[C@H]2[C@H](CC[C@@H]3[C@@H]2CC[C@]2(C)[C@@H](C(=O)Cn4cc(C#N)cn4)CC[C@@H]32)C1", "note": "[Compound (1), 1-(2-((3R,5R,8R,9R,10S,13S,14S,17S)-3-hydroxy-3,13-dimethylhexadecahydro-1H-cyclopenta[a]phenanthren-17-yl)-2-oxoethyl)-1H-pyrazole-4-carbonitrile]", "values": [{"measurement": "HAMD-17 early insomnia item mean reduction from baseline", "value": "−1.3"}, {"measurement": "HAMD-17 late insomnia item mean reduction from baseline", "value": "−1.3"}, {"measurement": "HAMD-17 middle insomnia item mean reduction from baseline", "value": "−1.3"}, {"measurement": "EPDS-3A least square mean CFB", "setting": "Day 8", "value": "−2.2"}, {"measurement": "Concurrent improvement HAMD-17 ≤ 7 and HAM-A ≤ 7, OR (95% CI) vs placebo", "setting": "Day 15", "value": "2.75 (1.30, 5.84)"}, {"measurement": "Concurrent improvement MADRS ≤ 10 and HAM-A ≤ 7, OR (95% CI) vs placebo", "setting": "Day 15", "value": "2.35 (1.15, 4.80)"}, {"measurement": "LS mean difference vs placebo (as printed after HAMD-17 CFB)", "setting": "Day 15", "value": "−2.4"}, {"measurement": "MADRS Remission rate", "setting": "Day 15", "value": 54.1, "unit": "%"}, {"measurement": "MADRS Response rate", "setting": "Day 15", "value": 73.0, "unit": "%"}, {"measurement": "HAMD-17 total score CFB", "setting": "Day 15 (primary endpoint)", "value": "−17.8"}, {"measurement": "Concurrent improvement HAMD-17 ≤ 7 and HAM-A ≤ 7, OR (95% CI) vs placebo", "setting": "Day 45", "value": "3.45 (1.66, 7.16)"}, {"measurement": "Concurrent improvement MADRS ≤ 10 and HAM-A ≤ 7, OR (95% CI) vs placebo", "setting": "Day 45", "value": "3.09 (1.50, 6.36)"}, {"measurement": "EPDS-3A least square mean CFB", "setting": "Day 45", "value": "−3.6"}, {"measurement": "HAM-A Remission rate", "setting": "day 3", "value": 27.0, "unit": "%"}, {"measurement": "HAMD-17-Ins CFB, Compound (1)-placebo difference", "setting": "day 3", "value": "−0.841"}, {"measurement": "HAMD-17 A/S least squares mean CFB", "setting": "day 3", "value": "−3.8"}, {"measurement": "HAM-A Response rate", "setting": "day 8", "value": 69.3, "unit": "%"}, {"measurement": "EPDS remission (<13) rate", "setting": "day 15", "value": 64, "unit": "%"}, {"measurement": "HAMD-17 A/S Response rate", "setting": "day 15", "value": 68.9, "unit": "%"}, {"measurement": "HAMD-17 Remission rate", "setting": "day 15", "value": 45, "unit": "%"}, {"measurement": "HAMD-17 Response rate", "setting": "day 15", "value": 72, "unit": "%"}, {"measurement": "NNT for EPDS remission <13", "setting": "day 15", "value": 6}, {"measurement": "NNT, rapid outcomes", "setting": "day 15", "value": 5}, {"measurement": "HAMD-17 A/S least squares mean CFB", "setting": "day 45", "value": "−5.7"}, {"measurement": "NNT, sustained outcomes", "setting": "day 45", "value": 5}, {"measurement": "PHQ-9 total score least squares mean decrease", "setting": "day 45", "value": "−11.8"}, {"measurement": "SF-36v2 domains (SF, MH, PF, RP, BP) and MCS vs placebo", "setting": "day 45", "value": "statistically significant improvements"}, {"measurement": "Sustained HAMD-17 Remission rate", "setting": "days 15 and 45", "value": 37, "unit": "%"}, {"measurement": "Sustained HAMD-17 Response rate", "setting": "days 15 and 45", "value": 59, "unit": "%"}]}]}
